The target in one data set is T1, AtSUC8 (Arabidopsis thaliana, UniProt Q9ZVK6).
T1 construct: gene SUC8; full-length CDS, GFP fusion, in Arabidopsis mesophyll protoplasts
T1 sequence (Q9ZVK6 1-492): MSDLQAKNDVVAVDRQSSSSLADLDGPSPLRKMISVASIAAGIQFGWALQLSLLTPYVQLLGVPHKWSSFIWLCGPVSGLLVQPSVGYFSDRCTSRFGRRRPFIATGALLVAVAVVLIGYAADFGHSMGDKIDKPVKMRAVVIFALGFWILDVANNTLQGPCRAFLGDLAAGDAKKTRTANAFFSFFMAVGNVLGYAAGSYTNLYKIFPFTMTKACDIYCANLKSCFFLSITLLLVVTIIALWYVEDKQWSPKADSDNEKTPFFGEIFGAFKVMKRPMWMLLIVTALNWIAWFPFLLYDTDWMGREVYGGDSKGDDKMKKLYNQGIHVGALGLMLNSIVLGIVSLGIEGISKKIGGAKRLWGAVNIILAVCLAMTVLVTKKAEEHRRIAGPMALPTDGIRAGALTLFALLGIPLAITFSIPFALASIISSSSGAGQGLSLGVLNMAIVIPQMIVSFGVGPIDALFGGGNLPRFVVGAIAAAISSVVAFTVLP
Description: esculin fluorescence uptake into GFP-fusion expressing mesophyll protoplasts. The class given is cell-based. Particulars: 1 mM esculin, W5 buffer pH 5.6.

The next data set addresses T2, AtSUC3 (Arabidopsis thaliana, UniProt O80605).
T2 construct: gene SUC3; full-length CDS, GFP-AtSUC3 fusion, in Arabidopsis mesophyll protoplasts
T2 sequence (O80605 1-594): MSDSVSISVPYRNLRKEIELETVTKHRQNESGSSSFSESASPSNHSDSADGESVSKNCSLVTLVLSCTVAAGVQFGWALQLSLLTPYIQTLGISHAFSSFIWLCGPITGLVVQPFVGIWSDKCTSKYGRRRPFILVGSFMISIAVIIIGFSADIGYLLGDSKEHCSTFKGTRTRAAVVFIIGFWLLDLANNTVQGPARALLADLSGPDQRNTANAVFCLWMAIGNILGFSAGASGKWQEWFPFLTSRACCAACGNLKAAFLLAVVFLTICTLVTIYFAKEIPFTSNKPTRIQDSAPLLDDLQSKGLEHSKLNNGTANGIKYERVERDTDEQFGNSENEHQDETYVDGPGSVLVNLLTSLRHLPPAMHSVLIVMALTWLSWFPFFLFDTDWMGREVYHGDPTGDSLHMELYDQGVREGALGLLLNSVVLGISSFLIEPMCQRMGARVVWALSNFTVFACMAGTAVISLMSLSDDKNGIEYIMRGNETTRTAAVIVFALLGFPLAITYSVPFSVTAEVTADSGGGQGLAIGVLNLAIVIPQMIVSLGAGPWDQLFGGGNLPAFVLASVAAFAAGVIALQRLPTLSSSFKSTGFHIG
The description is as above. In kind it is cell-based. To be noted: 1 mM esculin, W5 buffer pH 5.6.

A further data set concerns the target T3, AtSUC2 (Arabidopsis thaliana, UniProt Q39231).
T3 construct: gene SUC2; full-length CDS, C-terminal GFP fusion (AtSUC2-GFP), in Arabidopsis mesophyll protoplasts; Col-0 named for the mutant construct
T3 sequence (Q39231 1-512): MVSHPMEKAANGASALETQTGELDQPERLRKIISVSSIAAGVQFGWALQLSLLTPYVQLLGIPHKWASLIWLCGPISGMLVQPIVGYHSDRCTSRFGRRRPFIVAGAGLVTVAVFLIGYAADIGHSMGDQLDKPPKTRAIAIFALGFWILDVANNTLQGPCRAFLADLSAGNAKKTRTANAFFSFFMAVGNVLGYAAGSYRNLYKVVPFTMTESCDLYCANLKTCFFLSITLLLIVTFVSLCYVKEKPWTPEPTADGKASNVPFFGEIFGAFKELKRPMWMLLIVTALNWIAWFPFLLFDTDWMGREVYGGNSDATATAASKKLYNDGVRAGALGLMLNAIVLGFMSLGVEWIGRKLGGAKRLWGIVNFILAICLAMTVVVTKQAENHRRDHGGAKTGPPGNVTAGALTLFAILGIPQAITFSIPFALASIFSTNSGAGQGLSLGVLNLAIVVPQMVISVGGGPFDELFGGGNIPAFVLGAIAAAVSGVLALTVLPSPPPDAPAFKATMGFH
Described as above. The class given is cell-based. Particulars: 1 mM esculin, W5 buffer pH 5.6.

The target of a further data set is T4, AtSUC1 (Arabidopsis thaliana, UniProt Q39232).
T4 construct: gene SUC1; full-length CDS, GFP fusion, in Arabidopsis mesophyll protoplasts
T4 sequence (Q39232 1-513): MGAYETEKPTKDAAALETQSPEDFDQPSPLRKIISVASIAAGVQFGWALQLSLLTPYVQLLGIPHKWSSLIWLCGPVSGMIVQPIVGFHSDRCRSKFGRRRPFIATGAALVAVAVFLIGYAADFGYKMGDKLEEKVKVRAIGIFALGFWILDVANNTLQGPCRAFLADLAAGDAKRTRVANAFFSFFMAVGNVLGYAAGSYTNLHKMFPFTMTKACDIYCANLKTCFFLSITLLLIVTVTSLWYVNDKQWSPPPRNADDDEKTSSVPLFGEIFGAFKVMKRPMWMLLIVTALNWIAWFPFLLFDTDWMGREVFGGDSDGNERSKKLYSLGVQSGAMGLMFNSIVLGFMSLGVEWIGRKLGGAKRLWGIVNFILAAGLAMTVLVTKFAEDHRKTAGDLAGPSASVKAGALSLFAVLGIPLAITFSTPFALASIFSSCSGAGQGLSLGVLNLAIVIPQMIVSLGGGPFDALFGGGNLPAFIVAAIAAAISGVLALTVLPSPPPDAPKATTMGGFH
The description is as above. In kind it is cell-based. Particulars: 1 mM esculin, W5 buffer pH 5.6.

For the next data set, the target named is T5, AtSUC5 (Arabidopsis thaliana, UniProt Q9C8X2).
T5 construct: gene SUC5; full-length CDS, GFP fusion, in Arabidopsis mesophyll protoplasts; Col-0 named for the mutant construct
T5 sequence (Q9C8X2 1-512): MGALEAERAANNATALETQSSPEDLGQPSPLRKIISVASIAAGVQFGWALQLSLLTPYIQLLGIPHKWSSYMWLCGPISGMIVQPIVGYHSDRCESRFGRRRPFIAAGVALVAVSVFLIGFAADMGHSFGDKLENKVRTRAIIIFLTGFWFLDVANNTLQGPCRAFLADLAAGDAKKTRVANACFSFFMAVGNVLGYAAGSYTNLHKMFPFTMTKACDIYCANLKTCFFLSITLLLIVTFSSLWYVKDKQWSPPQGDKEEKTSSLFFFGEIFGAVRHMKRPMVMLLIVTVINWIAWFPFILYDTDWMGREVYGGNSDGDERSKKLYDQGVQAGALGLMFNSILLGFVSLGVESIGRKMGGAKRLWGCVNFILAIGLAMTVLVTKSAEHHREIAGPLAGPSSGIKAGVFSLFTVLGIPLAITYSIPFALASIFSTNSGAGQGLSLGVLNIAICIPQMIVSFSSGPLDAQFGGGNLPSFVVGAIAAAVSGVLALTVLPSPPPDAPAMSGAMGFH
Described as above. In kind it is cell-based. To be noted: 1 mM esculin, W5 buffer pH 5.6.

The next data set concerns the target T6, AtSUC9 (Arabidopsis thaliana, UniProt Q9FG00).
T6 construct: gene SUC9; full-length CDS, GFP-AtSUC9 fusion, in Arabidopsis mesophyll protoplasts
T6 sequence (Q9FG00 1-491): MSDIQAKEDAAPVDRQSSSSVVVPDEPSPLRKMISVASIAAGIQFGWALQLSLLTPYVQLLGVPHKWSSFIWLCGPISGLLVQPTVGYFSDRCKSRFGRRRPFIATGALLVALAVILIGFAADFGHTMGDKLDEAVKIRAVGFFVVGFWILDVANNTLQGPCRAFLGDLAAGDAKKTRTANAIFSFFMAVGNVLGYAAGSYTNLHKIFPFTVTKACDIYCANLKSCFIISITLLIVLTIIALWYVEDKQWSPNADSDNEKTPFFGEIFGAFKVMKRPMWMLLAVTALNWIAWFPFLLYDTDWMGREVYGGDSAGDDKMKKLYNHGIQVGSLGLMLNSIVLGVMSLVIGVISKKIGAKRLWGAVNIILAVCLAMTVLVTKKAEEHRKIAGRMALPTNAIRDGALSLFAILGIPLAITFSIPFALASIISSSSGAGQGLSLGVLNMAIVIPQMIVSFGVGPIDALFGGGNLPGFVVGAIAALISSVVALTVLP
The data set is described as above. The class given is cell-based. To be noted: 1 mM esculin, W5 buffer pH 5.6.

The target in data set [1] is T7, AtSUC6Col-0 (Arabidopsis thaliana, UniProt Q6A329).
T7 construct: gene SUC6; full-length CDS from silique cDNA; untagged in yeast CSY4000 (strain TRY1039); GFP fusion in protoplasts
T7 sequence (Q6A329 1-492): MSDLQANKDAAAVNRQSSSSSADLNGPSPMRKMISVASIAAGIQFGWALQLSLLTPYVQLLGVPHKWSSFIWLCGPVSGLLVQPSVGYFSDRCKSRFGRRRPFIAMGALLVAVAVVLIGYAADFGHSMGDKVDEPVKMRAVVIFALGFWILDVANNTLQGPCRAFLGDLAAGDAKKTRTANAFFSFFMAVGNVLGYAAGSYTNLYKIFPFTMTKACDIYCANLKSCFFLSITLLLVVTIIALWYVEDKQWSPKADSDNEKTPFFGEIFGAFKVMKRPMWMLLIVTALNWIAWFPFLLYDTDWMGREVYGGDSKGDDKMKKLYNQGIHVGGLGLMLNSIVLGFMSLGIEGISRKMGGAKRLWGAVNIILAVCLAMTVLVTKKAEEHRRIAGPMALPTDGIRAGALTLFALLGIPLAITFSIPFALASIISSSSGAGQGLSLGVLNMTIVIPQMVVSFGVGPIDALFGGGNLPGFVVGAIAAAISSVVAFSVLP
Kind of data set: competition of […]-sucrose uptake in yeast; esculin uptake into protoplasts. The class given is cell-based. Particulars: pH 5.5; competition with 100 μM 14C-sucrose; value in figure only.

Data set [2] concerns the target T7, AtSUC6Col-0. Description: competition of […]-sucrose uptake in yeast. To be noted: 100 μM 14C-sucrose, maltose in 10-fold excess (1 mM), pH 5.5. The class given is cell-based.
Data set [3] has as its target T7, AtSUC6Col-0. Kind of data set: competition of […]-sucrose uptake in yeast. The class given is cell-based. To be noted: 10-fold excess, pH 5.5, weak, value in figure only.
Substrate in data set [4]: OC[C@H]1O[C@@](CO)(O[C@H]2O[C@H](CO)[C@@H](O)[C@H](O)[C@H]2O)[C@@H](O)[C@@H]1O
Kind of data set: cells, lysate or membranes. To be noted: external pH 5.5, H+ symport, labelled compound. In kind it is cell-based, Arabidopsis thaliana.

Turning to `O=c1ccc2cc(O[C@@H]3O[C@H](CO)[C@@H](O)[C@H](O)[C@H]3O)c(O)cc2o1` [esculin], the “esculin fluorescence uptake into GFP-fusion expressing mesophyll protoplasts” value was “AtSUC1, AtSUC5, AtSUC6Col-0, AtSUC8, or AtSUC9 enabled the cells to accumulate esculin” on AtSUC8; “Protoplasts with GFP-AtSUC3 were also able to accumulate esculin” on AtSUC3; “all protoplasts labeled by AtSUC2-GFP had taken up esculin” at AtSUC2; “AtSUC1, AtSUC5, AtSUC6Col-0, AtSUC8, or AtSUC9 enabled the cells to accumulate esculin” at AtSUC1; “AtSUC1, AtSUC5, AtSUC6Col-0, AtSUC8, or AtSUC9 enabled the cells to accumulate esculin” on AtSUC5; “AtSUC1, AtSUC5, AtSUC6Col-0, AtSUC8, or AtSUC9 enabled the cells to accumulate esculin” on AtSUC9. Moreover, the “competition of 14C-sucrose uptake in yeast; esculin uptake into protoplasts” value at AtSUC6Col-0 [1] was “addition of esculin greatly interfered with sucrose uptake (Figure 4E)”.
With `OC[C@H]1O[C@H](O[C@H]2[C@H](O)[C@@H](O)C(O)O[C@@H]2CO)[C@H](O)[C@@H](O)[C@@H]1O` (stereo partly shown) [maltose], on AtSUC6Col-0 [2], the “% residual 14C-sucrose uptake in 10-fold excess” value turned out to be 32%.
For `OC[C@H]1O[C@H](OC[C@H]2O[C@H](O[C@]3(CO)O[C@H](CO)[C@@H](O)[C@@H]3O)[C@H](O)[C@@H](O)[C@@H]2O)[C@H](O)[C@@H](O)[C@H]1O` [raffinose], on AtSUC6Col-0 [3], the “competition of 14C-sucrose uptake in yeast” value is “The trisaccharide raffinose slightly interfered with sucrose uptake”.

B1: AtSUC6Col-0 (Arabidopsis thaliana) (protein)
chain: T7 sequence (Q6A329 1-492)
notes: full-length CDS from silique cDNA; untagged in yeast CSY4000 (strain TRY1039); GFP fusion in protoplasts
B1: the Km in data set [4] was found to be 81.2 ± 2.7 µM.

Broadly, the Km is the substrate concentration at which the rate is half of its maximum.

The values above are taken from publication PMC5925572, “Protoplast-Esculin Assay as a New Method to Assay Plant Sucrose Transporters: Characterization of AtSUC6 and AtSUC7 Sucrose Uptake Activity in Arabidopsis Col-0 Ecotype” (Frontiers in Plant Science, 2018).
